The target in test [1] is T1, DDR1 (Homo sapiens, UniProt Q08345).
T1 construct: The enzymes were purchased as a catalytic domain GST Tag DDR1(#PR6913A); purchased ThermoFisher PR6913A
Put plainly: LanthaScreen Eu-Kinase Binding Assay (TR-FRET tracer displacement), DDR1. As to conditions: catalytic domain GST Tag DDR1; Kinase Tracer 178. In outline:
(§1)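 TR-FRET displacement of Alexa Fluor Kinase Tracer 178 from GST-tagged catalytic-domain DDR1 or DDR2, detected with Eu-labelled anti-GST antibody under kit-recommended conditions. The acceptor/donor emission ratio (665/615 nm) was plotted against inhibitor concentration and fitted to a sigmoid dose-response curve.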
Background: In TR-FRET formats the signal depends on donor and acceptor labels being close together.

The target in test [2] is T2, DDR1 (Mus musculus, UniProt Q03146).
T2 construct: expressed in transfected cells; host or cells: HEK293T
T2 sequence (Q03146 20-911): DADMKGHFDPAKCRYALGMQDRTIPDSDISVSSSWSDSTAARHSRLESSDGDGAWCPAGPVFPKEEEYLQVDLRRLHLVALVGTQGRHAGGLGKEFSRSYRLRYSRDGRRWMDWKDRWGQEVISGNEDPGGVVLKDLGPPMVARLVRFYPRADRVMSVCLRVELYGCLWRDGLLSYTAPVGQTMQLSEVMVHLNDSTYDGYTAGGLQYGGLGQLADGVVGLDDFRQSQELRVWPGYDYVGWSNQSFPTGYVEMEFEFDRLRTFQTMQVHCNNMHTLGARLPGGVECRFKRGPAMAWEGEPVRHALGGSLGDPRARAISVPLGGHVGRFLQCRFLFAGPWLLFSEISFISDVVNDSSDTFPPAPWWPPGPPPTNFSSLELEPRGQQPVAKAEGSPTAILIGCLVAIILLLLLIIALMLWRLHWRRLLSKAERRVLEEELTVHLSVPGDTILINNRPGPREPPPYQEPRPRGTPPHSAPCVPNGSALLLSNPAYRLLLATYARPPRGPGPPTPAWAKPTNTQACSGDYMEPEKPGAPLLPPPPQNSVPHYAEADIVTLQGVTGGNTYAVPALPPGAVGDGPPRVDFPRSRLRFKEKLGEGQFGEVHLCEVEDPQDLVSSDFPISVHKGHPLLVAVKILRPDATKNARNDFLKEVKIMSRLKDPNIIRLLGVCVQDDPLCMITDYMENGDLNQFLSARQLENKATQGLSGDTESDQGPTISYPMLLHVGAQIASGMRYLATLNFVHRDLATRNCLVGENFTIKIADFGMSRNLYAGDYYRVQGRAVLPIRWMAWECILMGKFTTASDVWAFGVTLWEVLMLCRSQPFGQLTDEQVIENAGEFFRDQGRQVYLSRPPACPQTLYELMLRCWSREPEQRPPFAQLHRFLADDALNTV
Briefly: Cellular assay: inhibition of Collagen I-induced DDR1 autophosphorylation in HEK293T cells transiently transfected with DDR1 plasmid (Western blot). Type of test: cell-based, human. Conditions: pcDNA3.1 DDR1 WT mouse plasmid, compound 1 h, then 10 µg/mL Collagen I 1 h, P-DDR1 (Y513), read-out: pDDR1 EC50. (In general: A western blot detects proteins with antibodies after separation by electrophoresis.)

For the next test, the target named is T3, DDR2 (Homo sapiens, UniProt Q16832).
T3 construct: The enzymes were purchased as a catalytic domain GST Tag DDR1(#PR6913A) and DDR2 (#PR7167A); purchased ThermoFisher PR7167A
T3 sequence (Q16832 563-849 limits assumed): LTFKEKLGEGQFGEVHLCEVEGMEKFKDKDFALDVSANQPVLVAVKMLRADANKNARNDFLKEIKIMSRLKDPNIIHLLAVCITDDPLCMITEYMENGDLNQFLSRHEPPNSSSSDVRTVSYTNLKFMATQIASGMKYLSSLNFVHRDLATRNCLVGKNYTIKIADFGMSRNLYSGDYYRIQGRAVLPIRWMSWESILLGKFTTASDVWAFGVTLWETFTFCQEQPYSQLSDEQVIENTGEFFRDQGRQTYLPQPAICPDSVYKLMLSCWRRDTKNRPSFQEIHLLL
Briefly: LanthaScreen Eu-Kinase Binding Assay (TR-FRET tracer displacement), DDR2. Conditions: catalytic domain GST Tag DDR2; Kinase Tracer 178. Put shortly: as §1

T1 sequence (Q08345 610-905 limits assumed): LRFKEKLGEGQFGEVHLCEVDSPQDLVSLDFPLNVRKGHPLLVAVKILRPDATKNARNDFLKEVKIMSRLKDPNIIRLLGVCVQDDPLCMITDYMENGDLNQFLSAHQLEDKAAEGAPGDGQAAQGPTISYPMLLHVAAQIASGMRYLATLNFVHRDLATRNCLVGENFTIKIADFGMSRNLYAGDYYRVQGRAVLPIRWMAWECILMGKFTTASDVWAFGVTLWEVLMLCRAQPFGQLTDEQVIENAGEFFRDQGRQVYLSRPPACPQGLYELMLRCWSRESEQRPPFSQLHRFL

As to `CCc1c(C)nc2sc(-c3ccnc(Nc4cccc(N5CCN(CCO)CC5)c4)n3)c(-c3ccccc3)n2c1=O` [Compound 77, 6-Ethyl-2-(2-{3-[4-(2-hydroxy-ethyl)-piperazin-1-yl]-phenylamino}-pyrimidin-4-yl)-7-methyl-3-phenyl-thiazolo[3,2-a]pyrimidin-5-one], the IC50 at DDR1 [1] came to 25.5 nM; on DDR2, 69.4 nM. Also, at DDR1 [2], the half-maximal effective concentration (EC50) was 46.8 nM.

In general, IC50 refers to the midpoint of a concentration-inhibition curve. Read a high IC50 as weaker potency. As a reminder, the EC50 is the concentration at which the effect is half-maximal.

For the origin of these results see patent EP4032896A1, “THIAZOLOPYRIMIDONES AS INHIBITORS OF DDR1/2 AND THERAPEUTIC USES THEREOF” (Fundación del Sector Público Estatal Centro Nacional de …, priority 2021, dated 2022).
